# According to PMC8218751, “Visualizing Borrelia burgdorferi Infection Using a Small-Molecule Imaging Probe” (Journal of Clinical Microbiology, 2021):
# “Also recorded” adds a separate entry of the source.
# Legend:
# T. denticola HtpG = T. denticola HtpG (Treponema denticola, UniProt P61188); experiment: FLECS assay, elution of GFP-HtpG from ATP Sepharose; format: binding; settings: in words
# Description: Escherichia coli (strain BL21/DE3) genomic DNA was isolated from a lab culture generated from the cloning/expression bacterium (ThermoFisher catalog no. EC0114) by overnight proteinase K digestion at 56°C, high-salt clarification, and ethanol precipitation. B. burgdorferi (strain B31) and Treponema denticola genomic DNAs were obtained from the American Type Culture Collection (Manassas, VA; ATCC 35210 and 35405, respectively). Human Hsp90-alpha sequences were derived from cDNA generated from total mRNA of the human breast epithelial line, MCF10A. HtpG DNA sequences were PCR cloned from these DNAs using primers designed to allow in-frame cloning with GFP in the isopropyl-β-D-thiogalactopyranoside (IPTG)-inducible bacterial expression vector. 1GFP (pET His6 GFP TEV [tobacco etch virus] LIC [ligation-independent cloning] vector) was a gift from Scott Gradia (Addgene plasmid #29663; http://n2t.net/addgene:29663; RRID:Addgene_29663). Fusion protein cloning was done using the ligation-independent cloning procedure via single-nucleotide T4 DNA polymerase treatment of vector and purified PCR products followed by annealing of complementary single-strand ends before transformation into DH5 E. coli. Proper fusion junctions and fidelity of cloned inserts were confirmed by sequencing, and then the plasmid was transformed into E. coli BL21(DE3) for protein expression. Fusion protein synthesis was induced by incubation with 1 mM IPTG or autoinduction ([17]). Production of GFP-HtpG/Hsp90 was confirmed by identification of GFP and HtpG peptides with matrix-assisted laser desorption ionization (MALDI) using an AB Sciex 5800 time of flight (TOF)/TOF mass spectrometer in the induced band identified on an SDS-PAGE gel. To complete binding curves, several liters of induced cultures was generated, pelleted with centrifugation of 3,150 × g for 15 min, flash frozen in liquid nitrogen, and then stored at −80°C until subsequent fluorescent-linked enzyme chemoproteomic strategy (FLECS) analysis.
# γ-linked ATP Sepharose matrix was generated as described previously by the Haystead lab ([18]). BL21 bacterial pellets expressing GFP-fusion proteins of E. coli, B. burgdorferi, and T. denticola HtpGs and human Hsp90 were lysed with B-PER complete bacterial protein extraction reagent (Thermo Scientific catalog number 89821) and centrifuged at 96,000 relative centrifugal force (RCF) (Beckman Coulter type 45 Ti fixed-angle rotor) to pellet insoluble BL21 material. The clarified lysate was added to a column containing ATP-bound Sepharose. The column was washed with low-salt buffer (150 mM NaCl, 25 mM HEPES, pH 7.4, 1 mM dithiothreitol [DTT], and 60 mM MgCl2), followed by high-salt buffer (1 M NaCl, 25 mM HEPES, pH 7.4, 1 mM DTT, 0.1% IGEPAL, and 60 mM MgCl2) and once again low-salt buffer to remove unbound protein. Next, the resin with bound proteins (50 μl) was transferred to a 0.2-μm polyvinylidene fluoride filter 96-well plate (Corning) sitting on top of a black flat-bottomed 96-well catch plate (Corning). Small molecules or ATP was added to each well (50 μl), and the plates were centrifuged using an Eppendorf 5810 centrifuge at 1,100 rpm (220 RCF) for 1 min. The eluted proteins were measured in a fluorescent plate reader to detect the GFP. Some compounds are autofluorescent, and so to confirm fusion protein elution, samples were analyzed by classic SDS-PAGE methods followed by silver staining and MALDI mass spectrometry using a AB Sciex 5800 TOF/TOF mass spectrometer.
# Subtle single amino acid differences are present within the catalytic clefts of these proteins, especially between residues that contact the nucleotide. […] We therefore reasoned that these differences may be sufficient to design small molecules that can similarly discriminate HtpG of stealth organisms. To test this hypothesis, we utilized a fluorescent-linked enzyme chemoproteomic strategy (FLECS) assay to test known Hsp90 inhibitors ([18]) for binding to various HtpG constructs. […]
# E. coli HtpG = biological target: T1, E. coli HtpG (Escherichia coli, UniProt P0A6Z3); experiment: biochemical; format: binding
# T1 construct: His6 (N); made in house; host or cells: E. coli BL21(DE3)
# Description: (§1) Escherichia coli (strain BL21/DE3) genomic DNA was isolated from a lab culture generated from the cloning/expression bacterium (ThermoFisher catalog no. EC0114) by overnight proteinase K digestion at 56°C, high-salt clarification, and ethanol precipitation. […] Human Hsp90-alpha sequences were derived from cDNA generated from total mRNA of the human breast epithelial line, MCF10A. HtpG DNA sequences were PCR cloned from these DNAs using primers designed to allow in-frame cloning with GFP in the isopropyl-β-D-thiogalactopyranoside (IPTG)-inducible bacterial expression vector. […] Fusion protein cloning was done using the ligation-independent cloning procedure via single-nucleotide T4 DNA polymerase treatment of vector and purified PCR products followed by annealing of complementary single-strand ends before transformation into DH5 E. coli. […] Fusion protein synthesis was induced by incubation with 1 mM IPTG or autoinduction ([17]).
# (§2) γ-linked ATP Sepharose matrix was generated as described previously by the Haystead lab ([18]). […] The clarified lysate was added to a column containing ATP-bound Sepharose. The column was washed with low-salt buffer (150 mM NaCl, 25 mM HEPES, pH 7.4, 1 mM dithiothreitol [DTT], and 60 mM MgCl2), followed by high-salt buffer (1 M NaCl, 25 mM HEPES, pH 7.4, 1 mM DTT, 0.1% IGEPAL, and 60 mM MgCl2) and once again low-salt buffer to remove unbound protein. Next, the resin with bound proteins (50 μl) was transferred to a 0.2-μm polyvinylidene fluoride filter 96-well plate (Corning) sitting on top of a black flat-bottomed 96-well catch plate (Corning). […] The eluted proteins were measured in a fluorescent plate reader to detect the GFP.
# (§3) Subtle single amino acid differences are present within the catalytic clefts of these proteins, especially between residues that contact the nucleotide. […] We therefore reasoned that these differences may be sufficient to design small molecules that can similarly discriminate HtpG of stealth organisms. To test this hypothesis, we utilized a fluorescent-linked enzyme chemoproteomic strategy (FLECS) assay to test known Hsp90 inhibitors ([18]) for binding to various HtpG constructs. First, we cloned and expressed in E. coli recombinant N-terminal GFP-fusion forms of HtpG from B. burgdorferi, E. coli, and Treponema denticola, the oral spirochete, as well as human Hsp90. We then incubated lysate after protein expression with an ATP Sepharose resin to enable binding. In this assay, ATP is tethered to Sepharose beads via its γ-phosphate, enabling the nucleotide to bind to ATP binding proteins such as Hsp90 and HtpG, but is nonhydrolyzable ([24]). After proteins are bound to the ATP Sepharose resin, small molecules with affinity for the ATP binding site will elute the GFP-fusion protein, which can readily be detected and quantified on a plate fluorometer.
# (§4) These compounds were selected for testing based on their known binding to human Hsp90 ([25], [26]).
# B. burgdorferi HtpG = biological target: T2, B. burgdorferi HtpG (Borreliella burgdorferi, UniProt P42555); experiment: biochemical; format: binding, Borrelia burgdorferi
# T2 construct: His6 (N); made in house; host or cells: E. coli BL21(DE3)
# Description: as §1, §2, §3, §4
# T2 sequence (P42555 whole entry): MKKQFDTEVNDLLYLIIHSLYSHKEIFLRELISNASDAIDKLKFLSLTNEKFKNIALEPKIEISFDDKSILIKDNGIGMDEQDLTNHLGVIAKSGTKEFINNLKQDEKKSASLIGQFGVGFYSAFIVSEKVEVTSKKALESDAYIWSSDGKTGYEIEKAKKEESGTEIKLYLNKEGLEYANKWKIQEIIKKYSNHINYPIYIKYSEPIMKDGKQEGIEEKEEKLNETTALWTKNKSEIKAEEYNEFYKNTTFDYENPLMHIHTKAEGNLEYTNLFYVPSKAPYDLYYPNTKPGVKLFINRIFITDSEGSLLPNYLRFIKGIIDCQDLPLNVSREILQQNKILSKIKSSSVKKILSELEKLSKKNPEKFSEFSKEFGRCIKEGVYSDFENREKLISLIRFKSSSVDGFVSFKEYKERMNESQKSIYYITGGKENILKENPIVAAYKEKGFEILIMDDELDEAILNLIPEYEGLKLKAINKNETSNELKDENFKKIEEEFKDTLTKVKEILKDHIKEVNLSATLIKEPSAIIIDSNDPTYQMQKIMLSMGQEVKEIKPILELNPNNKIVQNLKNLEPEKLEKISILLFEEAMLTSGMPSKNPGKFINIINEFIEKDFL
# T1 sequence (P0A6Z3 whole entry): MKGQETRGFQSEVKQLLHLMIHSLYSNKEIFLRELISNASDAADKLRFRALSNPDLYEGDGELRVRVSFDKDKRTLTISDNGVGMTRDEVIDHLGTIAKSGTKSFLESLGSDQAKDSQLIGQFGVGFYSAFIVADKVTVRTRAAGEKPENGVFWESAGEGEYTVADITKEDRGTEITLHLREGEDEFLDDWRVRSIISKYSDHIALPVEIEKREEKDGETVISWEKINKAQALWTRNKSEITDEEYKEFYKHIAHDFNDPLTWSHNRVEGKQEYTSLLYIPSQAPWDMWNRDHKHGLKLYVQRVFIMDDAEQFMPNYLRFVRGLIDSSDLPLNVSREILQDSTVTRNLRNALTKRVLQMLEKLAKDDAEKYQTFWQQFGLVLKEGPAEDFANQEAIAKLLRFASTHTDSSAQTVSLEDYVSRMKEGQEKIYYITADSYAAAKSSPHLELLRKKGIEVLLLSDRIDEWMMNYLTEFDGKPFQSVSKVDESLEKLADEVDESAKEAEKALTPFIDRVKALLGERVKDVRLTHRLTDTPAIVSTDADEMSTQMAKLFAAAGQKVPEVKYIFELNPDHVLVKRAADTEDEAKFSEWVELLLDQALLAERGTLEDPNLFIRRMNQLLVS
# T. denticola HtpG, sequence (P61188 whole entry): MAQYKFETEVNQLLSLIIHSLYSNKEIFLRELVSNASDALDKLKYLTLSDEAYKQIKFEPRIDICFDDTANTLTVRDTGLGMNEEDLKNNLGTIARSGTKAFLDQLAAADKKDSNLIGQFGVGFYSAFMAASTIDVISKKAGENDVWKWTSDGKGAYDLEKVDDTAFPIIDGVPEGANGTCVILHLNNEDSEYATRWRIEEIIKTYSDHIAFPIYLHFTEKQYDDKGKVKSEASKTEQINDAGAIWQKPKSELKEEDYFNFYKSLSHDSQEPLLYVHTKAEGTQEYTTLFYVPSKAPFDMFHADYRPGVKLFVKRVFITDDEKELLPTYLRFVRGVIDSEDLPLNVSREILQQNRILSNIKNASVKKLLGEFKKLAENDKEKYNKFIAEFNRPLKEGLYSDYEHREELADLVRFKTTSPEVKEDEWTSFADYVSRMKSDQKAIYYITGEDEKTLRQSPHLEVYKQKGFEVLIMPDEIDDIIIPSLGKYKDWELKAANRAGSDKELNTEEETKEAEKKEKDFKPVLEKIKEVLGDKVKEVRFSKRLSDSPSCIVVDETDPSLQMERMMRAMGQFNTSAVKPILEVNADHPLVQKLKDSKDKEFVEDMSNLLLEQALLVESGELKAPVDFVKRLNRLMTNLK
smiles,measurement,setting,value
Cc1nn(-c2ccc(C(=O)N(C)C)c(NCCCOCCOCCOCCOCCOCCCNCc3ccc(C(=C\C=C4/N(CCCCS(=O)(=O)O)c5ccccc5C4(C)C)/C=C/C4=[N+](CCCCS(=O)(=O)[O-])c5ccccc5C4(C)C)cc3)c2)c2c1C(=O)CC(C)(C)C2 [HS-198],Release of T. denticola HtpG from immobilized ATP resin,T. denticola HtpG,unable to release; also recorded: inactive
same,Kd,E. coli HtpG,5.8 ± 0.6 µM
same,Release of E. coli GFP-HtpG from ATP Sepharose,E. coli HtpG; in words,released
same,Kd,B. burgdorferi HtpG,5.6 ± 3 µM
same,Elution of B. burgdorferi GFP-HtpG from ATP Sepharose beads,B. burgdorferi HtpG; in words,selectively eluted the bound fusion protein
